From patent US12521406B2, “Use of compounds in the treatment of fungal infections” (Basilea Pharmaceutica International AG, Allschwil, priority 2020, dated 2026) come the findings set out here.

Series [1] deals with fungal glycosylphosphatidylinositol (GPI)-anchored wall transfer protein 1 (GWT1) enzyme (Saccharomyces cerevisiae, UniProt P47026). The experiment in a line: Inhibition of fungal GWT1 enzyme. In kind it is biochemical. An excerpt:
(§1) Compound 1A inhibits the fungal glycosylphosphatidylinositol (GPI)-anchored wall transfer protein 1 (GWT1) enzyme, a highly conserved inositol acylase that catalyzes an early step in the GPI-anchored biosynthesis pathway. This inhibition has pleiotropic effects on the fungal cell due to inhibition of cell wall mannoprotein localization, which comprises cell wall integrity, biofilm formation, germ tube formation, and fungal growth.

Series [2] has as its system Aspergillus fumigatus, Scedosporium prolificans, and Fusarium solani. The series is described as follows: 5-fluorouracil immunosuppressed mice with IMIs. The series is classed as in vivo.
The target in series [3] is T1, phosphatidylinositol glycan anchor biosynthesis class W (PIGW) protein (Homo sapiens, UniProt Q7Z7B1).
T1 sequence (Q7Z7B1 1-504): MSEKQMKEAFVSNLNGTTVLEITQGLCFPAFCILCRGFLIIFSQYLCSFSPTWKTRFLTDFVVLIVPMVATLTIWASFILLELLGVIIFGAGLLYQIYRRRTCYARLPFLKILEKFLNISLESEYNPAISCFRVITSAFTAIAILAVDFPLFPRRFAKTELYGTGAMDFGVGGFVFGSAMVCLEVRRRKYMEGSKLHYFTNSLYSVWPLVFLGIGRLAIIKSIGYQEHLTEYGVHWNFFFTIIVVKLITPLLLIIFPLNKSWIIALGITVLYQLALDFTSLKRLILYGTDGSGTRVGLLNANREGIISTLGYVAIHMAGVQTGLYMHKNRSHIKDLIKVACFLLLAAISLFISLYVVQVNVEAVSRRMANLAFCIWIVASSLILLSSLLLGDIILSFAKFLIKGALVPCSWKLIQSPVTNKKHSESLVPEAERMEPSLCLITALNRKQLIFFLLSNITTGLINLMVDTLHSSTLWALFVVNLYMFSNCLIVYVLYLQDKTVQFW
The series is described as follows: Inhibition of PIGW, closest mammalian ortholog of GWT1. The series is classed as biochemical. As to conditions: closest mammalian ortholog of the fungal GWT1 protein.
Excerpt: as §1

Series [4] relates to Candida spp., Cryptococcus spp., Aspergillus spp., Scedosporium spp., Fusarium spp., and some Mucorales fungi. The series is described as follows: In vitro antifungal activity. In kind it is cell-based. An excerpt:
These rare mold and rare yeast species generally pose no threat to healthy subjects, but can lead to invasive mold infections in immunocompromised individuals.

For series [5], the system named is Aspergillus spp. clinical isolates. The experiment in a line: 2017 and 2018 surveillance of antifungal activity against Aspergillus clinical isolates (MEC). The series is classed as cell-based. The conditions noted are these: Aspergillus isolates likely to be found in the clinical patient population. On the procedure: The MEC in […] (MEC90) for Aspergillus isolates likely to be found in the clinical patient population under study is 0.03 μg/mL.

The subject of series [6] is Aspergillus spp. or rare molds. The experiment in a line: Phase 2 open-label study in patients with invasive mold infections. The series is classed as in vivo, human. The conditions noted are these: 12 patients treated.
Excerpt: This is a Phase 2, multicenter, open-label, non-comparative study to evaluate the safety and efficacy of compound 1 for the treatment of IMIs caused by Aspergillus spp. or rare molds (e.g., Scedosporium spp., Fusarium spp., and Mucorales fungi). Patients 18 years of age or older will undergo Screening procedures for up to 5 days, following which eligible patients will participate in the study drug Treatment Period for up to 6 weeks, with a Follow-Up Visit 4 weeks after EOST, and a Follow-Up Phone Call 12 weeks after Day 1 (Day 84). The total duration of a patient's participation in the study will be approximately 12 weeks, inclusive of the follow-up telephone call required on Day 84. Patients who require treatment for longer than 6 weeks can be switched to other licensed antifungal therapy (OLAT) at the discretion of the Investigator and in consultation with the Medical Monitor if the situation allows.
This study will consist of a single treatment arm consisting of a loading dose of 1000 mg compound 1, administered over 3 hours by IV infusion twice daily (BID) within the first 24 hours after initiation of the first infusion. On Days 2 and 3, 600 mg compound 1 will be administered over 3 hours by IV infusion once daily (QD). […]
The next series relates to A. fumigatus. The series is described as follows: PK-PD study in immunocompromised mice infected with 6 strains of A. fumigatus. The series is classed as in vivo. As to conditions: fungal burden (CEs by qPCR) in lung homogenates at 96 hours; 6 A. fumigatus strains. On the procedure:
Pharmacokinetic-pharmacodynamic (PK-PD) studies in immunosuppressed mice with invasive infections caused by A. fumigatus have shown that the area under the concentration-time curve (AUC) divided by the minimal effective concentration (MEC) ratio is the driver of efficacy.
In a pharmacokinetic/pharmacodynamic (PK-PD) study, immunocompromised mice were infected with 6 strains of A. fumigatus, inclusive of wild type, azole-resistant, and echinocandin-resistant strains. Groups of animals were dosed with compound 1 at different dose fractionations. […] The stasis and 1-logarithm drop endpoints were defined as the quantity of A. fumigatus in CEs just prior to compound 1 administration compared to CEs at the endpoint of assessment at 96 hours.
For orientation: Real-time PCR tracks product formation cycle by cycle.

The conditions of series [7]: Phase 1, healthy volunteers. An excerpt:
The duration of the multiple-dose regimens in these studies was 7, 14, and 42 days (6 weeks).
One dose regimen of compound 1 will be evaluated in this study.

The conditions of series [8]: in vivo.
Series [9] has as its system Fusarium, Aspergillus/Lichtheimia, C. albicans, L. prolificans infection. As to conditions: human, in vivo.
Excerpt: Population: A total of 15 patients with life-threatening/serious fungal infections received treatment, with slight modifications. […] Of these patients, 12 have an invasive Fusarium infection, while the remaining patients have Aspergillus/Lichtheimia infection, C. albicans infection, and L. prolificans infection. […] These patients show a broad range of fungal infection sites with sinus, spine, ankle, skin, eye, brain, and disseminated infections all observed. Many of these patients also have an underlying disease/condition, such as AML/ALL/MDS, SC/solid organ transplantation, or trauma.
Updates to Dosing Regimen: Seven patients received IV dosing of compound 1, and six of these seven switched to oral doses. Eight patients received oral doses only. […] Additionally, eight patients received oral compound 1 at 400 mg BID rather than 800 mg QD.

fungal glycosylphosphatidylinositol (GPI)-anchored wall transfer protein 1 (GWT1) enzyme, sequence (P47026 whole entry): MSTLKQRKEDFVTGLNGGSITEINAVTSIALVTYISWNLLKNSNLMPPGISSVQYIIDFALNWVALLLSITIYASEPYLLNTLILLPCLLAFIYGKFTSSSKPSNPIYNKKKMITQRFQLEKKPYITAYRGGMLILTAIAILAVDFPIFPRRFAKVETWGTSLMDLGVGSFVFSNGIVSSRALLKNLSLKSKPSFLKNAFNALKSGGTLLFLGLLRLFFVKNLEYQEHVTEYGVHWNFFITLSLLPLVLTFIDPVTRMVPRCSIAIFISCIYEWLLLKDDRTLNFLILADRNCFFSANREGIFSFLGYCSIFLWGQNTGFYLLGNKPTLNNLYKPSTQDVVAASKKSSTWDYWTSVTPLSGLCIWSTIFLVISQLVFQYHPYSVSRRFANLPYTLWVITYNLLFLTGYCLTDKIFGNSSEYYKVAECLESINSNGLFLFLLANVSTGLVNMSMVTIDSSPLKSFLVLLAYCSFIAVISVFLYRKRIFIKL

For the compound `Nc1ncccc1-c1cc(Cc2ccc(COc3ccccn3)cc2)no1` [Compound 1A], in series [1], the “inhibition of fungal GWT1 enzyme” value is recorded as “inhibits”. Besides, in [2], the “pulmonary fungal colony counts” value was “reduced pulmonary fungal colony counts” and the survival rates result is “statistically significantly improved survival rates”. In addition, in [3], the “inhibition of PIGW protein” value was “does not inhibit”. Further, the “in vitro antifungal activity” value in series [4] (including azole- and echinocandin-resistant strains) is listed as “broad in vitro antifungal activity”. For the same compound, the “antifungal activity against clinical isolates of rare mold and rare yeast infections” value in series [4] (rare molds and rare yeasts listed) is on record as “antifungal activity against a broad range of clinical isolates”. Further, the MEC90 in series [5] was 0.03 µg/mL.

Turning to `Nc1c(-c2cc(Cc3ccc(COc4ccccn4)cc3)no2)ccc[n+]1COP(=O)([O-])O` [compound 1], the “patients with good response (at Day 42 or earlier)” value in [6] is recorded as 8 patients. For the same compound, in the series with A. fumigatus, the “median total drug AUC/MEC which achieved 1-logarithm kill endpoint” value is listed as 5258.2 and the “median total drug AUC/MEC which achieved stasis endpoint” value was 2801.6. Further, the “safety and tolerability of the dose regimen” value in series [7] was “safe and well tolerated”. Besides, in series [8], the “conversion of prodrug to active moiety compound 1A” value is given as “rapidly converted in vivo by phosphatases”; the tissue distribution result was “wide-tissue distribution, including the eye and central nervous system”. Moreover, the “tolerability over extended treatment durations” value in series [9] is given as “generally well tolerated”.
